Data taken from article PMC5428567, “Pentameric ligand-gated ion channels exhibit distinct transmembrane domain archetypes for folding/expression and function” (Scientific Reports, 2017).

Legend:
ELIC S271A + F307A = target: T1, ELIC S271A + F307A (Dickeya chrysanthemi, UniProt P0C7B7, F307A/S271A); test: TEVC cysteamine-induced current, ELIC S271A + F307A; type: cell-based; settings: Xenopus laevis oocytes; ±SD; n=8
T1 construct: expressed in transfected cells; host or cells: Xenopus laevis oocytes injected with cRNA (pTLN plasmid)
Excerpt: (§1) To examine how different physical interactions at the M4-M1/M3 interface in both GLIC and ELIC (Fig. 1) influence function, we mutated each residue to Ala, and characterized how each mutation influenced agonist-induced channel gating using two-electrode voltage clamp electrophysiology. Both GLIC and ELIC are cation-selective ion channels that transiently gate open in response to agonist binding, although GLIC responds to protons while ELIC responds to primary amines, such as cysteamine, [34].
(§2) Stage V–VI oocytes were collected as previously described, injected with cRNA, and allowed to incubate one to four days at 16 °C in ND96 + buffer (5 mM HEPES, 96 mM NaCl, 2 mM KCl, 1 mM MgCl2, 1 mM CaCl2, and 2 mM Pyruvate). Whole cell currents were recorded using a two-electrode voltage clamp apparatus (OC-725C oocyte clamp; Holliston, MA). For GLIC, whole cell currents were recorded from injected oocytes (3–20 ng cRNA) immersed in MES buffer (140 mM NaCl, 2.8 mM KCl, 2 mM MgCl2, and 10 mM MES). Currents through the plasma membrane in response to pH jumps (pH 7.3 down to the indicated pH values) were measured with the transmembrane voltage clamped at voltages between −20 mV and −40 mV depending on the level of expression, typically −20 mV. […]

ELIC Q263A = target: T2, ELIC Q263A (Dickeya chrysanthemi, UniProt P0C7B7, Q263A); test: TEVC cysteamine-induced current, ELIC Q263A; type: cell-based; settings: Xenopus laevis oocytes; ±SD; n=8
T2 construct: expressed in transfected cells; host or cells: Xenopus laevis oocytes injected with cRNA
Excerpt: as §1, §2

ELIC W223A = target: T3, ELIC W223A (Dickeya chrysanthemi, UniProt P0C7B7, W223A); test: TEVC cysteamine-induced current, ELIC W223A; type: cell-based; settings: Xenopus laevis oocytes; ±SD; n=8
T3 construct: expressed in transfected cells; host or cells: Xenopus laevis oocytes injected with cRNA
Excerpt: as §1, §2

ELIC F281A = target: T4, ELIC F281A (Dickeya chrysanthemi, UniProt P0C7B7, F281A); test: TEVC cysteamine-induced current, ELIC F281A; type: cell-based; settings: Xenopus laevis oocytes; ±SD; n=8
T4 construct: expressed in transfected cells; host or cells: Xenopus laevis oocytes injected with cRNA
Excerpt: as §1, §2

ELIC F307A = tested on: ELIC F307A; parameters: method as in Henault et al.[9], [18], [29]; settings: Xenopus laevis oocytes; ±SD; n=8; ref Henault et al.[9], [18], [29]; cited from earlier work
ELIC W219A + F303A = target: T5, ELIC W219A + F303A (Dickeya chrysanthemi, UniProt P0C7B7, F303A/W219A); test: TEVC cysteamine-induced current, ELIC W219A + F303A; type: cell-based; settings: Xenopus laevis oocytes; ±SD; n=8
T5 construct: expressed in transfected cells; host or cells: Xenopus laevis oocytes injected with cRNA (pTLN plasmid)
Excerpt: as §1, §2

ELIC M264A = target: T6, ELIC M264A (Dickeya chrysanthemi, UniProt P0C7B7, M264A); test: TEVC cysteamine-induced current, ELIC M264A; type: cell-based; settings: Xenopus laevis oocytes; ±SD; n=8
T6 construct: expressed in transfected cells; host or cells: Xenopus laevis oocytes injected with cRNA
Excerpt: as §1, §2

ELIC F303A = tested on: ELIC F303A; parameters: method as in Henault et al.[9], [18], [29]; settings: Xenopus laevis oocytes; ±SD; n=10; ref Henault et al.[9], [18], [29]; cited from earlier work
ELIC F222A = target: T7, ELIC F222A (Dickeya chrysanthemi, UniProt P0C7B7, F222A); test: TEVC cysteamine-induced current, ELIC F222A; type: cell-based; settings: Xenopus laevis oocytes
T7 construct: expressed in transfected cells; host or cells: Xenopus laevis oocytes injected with cRNA
Excerpt: as §1
Stage V–VI oocytes were collected as previously described, injected with cRNA, and allowed to incubate one to four days at 16 °C in ND96 + buffer (5 mM HEPES, 96 mM NaCl, 2 mM KCl, 1 mM MgCl2, 1 mM CaCl2, and 2 mM Pyruvate). Whole cell currents were recorded using a two-electrode voltage clamp apparatus (OC-725C oocyte clamp; Holliston, MA). For GLIC, whole cell currents were recorded from injected oocytes (3–20 ng cRNA) immersed in MES buffer (140 mM NaCl, 2.8 mM KCl, 2 mM MgCl2, and 10 mM MES). Currents through the plasma membrane in response to pH jumps (pH 7.3 down to the indicated pH values) were measured with the transmembrane voltage clamped at voltages between −20 mV and −40 mV depending on the level of expression, typically −20 mV. For ELIC, whole cell currents were recorded from injected oocytes (0.1–10 ng cRNA) immersed in HEPES buffer (150 mM NaCl, 0.5 mM BaCl2, and 10 mM HEPES, pH 7.0). In most cases, currents through the plasma membrane in response to cysteamine concentration jumps (from 0 mM up to the indicated values) were measured with the transmembrane voltage clamped at −30 mV.
Dose responses for each mutant were acquired from at least two different batches of oocytes. Each individual dose-response experiment was fit with a variable slope sigmoidal dose-response and the individual EC50 values from each experiment averaged to give the reported EC50 values ± standard deviation.

ELIC L278A = target: T8, ELIC L278A (Dickeya chrysanthemi, UniProt P0C7B7, L278A); test: TEVC cysteamine-induced current, ELIC L278A; type: cell-based; settings: Xenopus laevis oocytes; ±SD; n=8
T8 construct: expressed in transfected cells; host or cells: Xenopus laevis oocytes injected with cRNA (pTLN plasmid)
Excerpt: as §1, §2

ELIC L209A = target: T9, ELIC L209A (Dickeya chrysanthemi, UniProt P0C7B7, L209A); test: TEVC cysteamine-induced current, ELIC L209A; type: cell-based; settings: Xenopus laevis oocytes; ±SD; n=8
T9 construct: expressed in transfected cells; host or cells: Xenopus laevis oocytes injected with cRNA
Excerpt: as §1, §2

ELIC S271A = target: T10, ELIC S271A (Dickeya chrysanthemi, UniProt P0C7B7, S271A); test: TEVC cysteamine-induced current, ELIC S271A; type: cell-based; settings: Xenopus laevis oocytes; ±SD; n=8
T10 construct: expressed in transfected cells; host or cells: Xenopus laevis oocytes injected with cRNA
Excerpt: as §1, §2

ELIC R300A = tested on: ELIC R300A; parameters: method as in Henault et al.[9], [18], [29]; settings: Xenopus laevis oocytes; ±SD; n=11; ref Henault et al.[9], [18], [29]; cited from earlier work
ELIC V315A = tested on: ELIC V315A; parameters: method as in Henault et al.[9], [18], [29]; settings: Xenopus laevis oocytes; ±SD; n=9; ref Henault et al.[9], [18], [29]; cited from earlier work
ELIC W219A + F307A = target: T11, ELIC W219A + F307A (Dickeya chrysanthemi, UniProt P0C7B7, F307A/W219A); test: TEVC cysteamine-induced current, ELIC W219A + F307A; type: cell-based; settings: Xenopus laevis oocytes; ±SD; n=8
T11 construct: expressed in transfected cells; host or cells: Xenopus laevis oocytes injected with cRNA (pTLN plasmid)
Excerpt: as §1, §2

ELIC L314A = tested on: ELIC L314A; parameters: method as in Henault et al.[9], [18], [29]; settings: Xenopus laevis oocytes; ±SD; n=8; ref Henault et al.[9], [18], [29]; cited from earlier work
ELIC C299A = tested on: ELIC C299A; parameters: method as in Henault et al.[9], [18], [29]; settings: Xenopus laevis oocytes; ±SD; n=9; ref Henault et al.[9], [18], [29]; cited from earlier work

T7 sequence (P0C7B7 whole entry F222A): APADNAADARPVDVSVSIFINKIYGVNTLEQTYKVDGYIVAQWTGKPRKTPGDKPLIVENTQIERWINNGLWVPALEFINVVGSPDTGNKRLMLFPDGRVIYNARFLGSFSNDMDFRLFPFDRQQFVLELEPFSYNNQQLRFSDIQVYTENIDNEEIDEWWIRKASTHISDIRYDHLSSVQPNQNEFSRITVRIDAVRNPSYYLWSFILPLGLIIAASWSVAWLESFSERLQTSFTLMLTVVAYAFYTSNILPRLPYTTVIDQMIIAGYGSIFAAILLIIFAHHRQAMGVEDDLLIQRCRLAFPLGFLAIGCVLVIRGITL
T5 sequence (P0C7B7 whole entry W219A/F303A): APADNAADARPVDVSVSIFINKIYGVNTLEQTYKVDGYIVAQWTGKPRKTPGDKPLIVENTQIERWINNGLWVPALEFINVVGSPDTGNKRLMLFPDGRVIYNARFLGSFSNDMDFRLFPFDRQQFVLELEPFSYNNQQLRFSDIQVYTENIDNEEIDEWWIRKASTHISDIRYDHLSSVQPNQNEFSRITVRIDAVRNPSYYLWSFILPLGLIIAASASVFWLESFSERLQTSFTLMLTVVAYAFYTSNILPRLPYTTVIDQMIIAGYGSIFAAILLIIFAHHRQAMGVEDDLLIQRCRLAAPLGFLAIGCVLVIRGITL
T8 sequence (P0C7B7 whole entry L278A): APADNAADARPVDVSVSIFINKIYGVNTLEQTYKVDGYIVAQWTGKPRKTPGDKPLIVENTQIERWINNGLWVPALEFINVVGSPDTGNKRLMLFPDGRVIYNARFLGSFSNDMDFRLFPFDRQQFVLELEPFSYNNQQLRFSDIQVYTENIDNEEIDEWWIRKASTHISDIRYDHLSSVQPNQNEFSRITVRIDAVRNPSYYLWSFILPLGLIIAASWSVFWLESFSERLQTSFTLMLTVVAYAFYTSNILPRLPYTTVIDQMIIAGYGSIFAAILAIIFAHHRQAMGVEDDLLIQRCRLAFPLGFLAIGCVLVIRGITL
T9 sequence (P0C7B7 whole entry L209A): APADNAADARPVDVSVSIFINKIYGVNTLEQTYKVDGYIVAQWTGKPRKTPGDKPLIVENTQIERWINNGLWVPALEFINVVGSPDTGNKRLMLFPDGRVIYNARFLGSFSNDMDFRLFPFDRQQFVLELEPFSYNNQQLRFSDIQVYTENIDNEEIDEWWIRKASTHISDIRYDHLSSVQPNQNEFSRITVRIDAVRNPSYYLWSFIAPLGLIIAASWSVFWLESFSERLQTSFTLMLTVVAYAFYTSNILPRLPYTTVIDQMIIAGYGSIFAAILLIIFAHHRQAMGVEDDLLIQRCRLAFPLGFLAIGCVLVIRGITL
T11 sequence (P0C7B7 whole entry W219A/F307A): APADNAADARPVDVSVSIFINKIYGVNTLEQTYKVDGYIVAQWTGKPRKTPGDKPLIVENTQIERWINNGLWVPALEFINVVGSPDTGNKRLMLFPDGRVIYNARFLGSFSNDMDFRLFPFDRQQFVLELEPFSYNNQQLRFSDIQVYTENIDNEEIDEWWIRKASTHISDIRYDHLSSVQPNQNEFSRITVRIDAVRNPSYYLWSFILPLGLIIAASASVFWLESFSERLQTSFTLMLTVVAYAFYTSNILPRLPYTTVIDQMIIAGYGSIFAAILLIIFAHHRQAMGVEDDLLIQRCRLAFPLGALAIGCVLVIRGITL
T2 sequence (P0C7B7 whole entry Q263A): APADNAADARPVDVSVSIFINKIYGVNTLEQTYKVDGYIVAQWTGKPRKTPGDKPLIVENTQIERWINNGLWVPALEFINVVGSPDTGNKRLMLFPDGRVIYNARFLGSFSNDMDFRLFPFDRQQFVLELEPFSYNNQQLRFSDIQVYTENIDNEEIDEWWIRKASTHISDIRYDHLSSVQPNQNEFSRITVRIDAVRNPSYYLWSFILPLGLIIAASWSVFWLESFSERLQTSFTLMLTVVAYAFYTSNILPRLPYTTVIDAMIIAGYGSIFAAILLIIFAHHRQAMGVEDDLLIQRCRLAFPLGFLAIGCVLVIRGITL
T6 sequence (P0C7B7 whole entry M264A): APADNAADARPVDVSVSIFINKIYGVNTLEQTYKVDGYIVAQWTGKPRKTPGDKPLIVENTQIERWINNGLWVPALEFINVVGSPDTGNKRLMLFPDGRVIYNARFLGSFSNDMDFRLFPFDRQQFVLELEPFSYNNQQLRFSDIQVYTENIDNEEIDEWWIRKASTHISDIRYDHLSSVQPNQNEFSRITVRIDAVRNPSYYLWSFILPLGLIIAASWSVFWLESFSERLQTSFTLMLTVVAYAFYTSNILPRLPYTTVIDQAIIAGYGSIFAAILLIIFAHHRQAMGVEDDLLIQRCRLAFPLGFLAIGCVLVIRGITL
T10 sequence (P0C7B7 whole entry S271A): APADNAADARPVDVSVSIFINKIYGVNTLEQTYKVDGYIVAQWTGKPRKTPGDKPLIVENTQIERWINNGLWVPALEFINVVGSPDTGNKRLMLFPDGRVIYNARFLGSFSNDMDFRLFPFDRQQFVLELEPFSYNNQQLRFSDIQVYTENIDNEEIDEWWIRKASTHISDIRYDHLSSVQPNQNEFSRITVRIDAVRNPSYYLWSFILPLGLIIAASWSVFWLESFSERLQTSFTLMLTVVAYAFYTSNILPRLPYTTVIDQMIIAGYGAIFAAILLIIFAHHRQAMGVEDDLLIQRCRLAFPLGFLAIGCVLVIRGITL
T1 sequence (P0C7B7 whole entry S271A/F307A): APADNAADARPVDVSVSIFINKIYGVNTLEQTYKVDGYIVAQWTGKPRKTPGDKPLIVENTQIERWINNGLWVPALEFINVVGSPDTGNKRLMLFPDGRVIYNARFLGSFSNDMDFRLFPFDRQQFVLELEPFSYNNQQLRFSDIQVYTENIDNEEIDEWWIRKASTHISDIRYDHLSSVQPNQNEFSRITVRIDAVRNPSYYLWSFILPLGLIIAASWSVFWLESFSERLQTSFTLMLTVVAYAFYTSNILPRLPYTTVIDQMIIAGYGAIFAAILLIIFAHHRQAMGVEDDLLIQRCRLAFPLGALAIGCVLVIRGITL
T3 sequence (P0C7B7 whole entry W223A): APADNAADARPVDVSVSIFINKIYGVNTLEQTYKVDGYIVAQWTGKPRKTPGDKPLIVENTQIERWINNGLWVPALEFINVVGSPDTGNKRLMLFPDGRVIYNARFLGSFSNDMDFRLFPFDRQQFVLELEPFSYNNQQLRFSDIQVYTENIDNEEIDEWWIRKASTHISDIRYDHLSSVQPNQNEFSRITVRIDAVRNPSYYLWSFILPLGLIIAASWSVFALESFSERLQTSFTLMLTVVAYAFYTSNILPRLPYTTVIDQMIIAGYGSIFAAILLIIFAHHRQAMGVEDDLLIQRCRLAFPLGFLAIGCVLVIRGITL
T4 sequence (P0C7B7 whole entry F281A): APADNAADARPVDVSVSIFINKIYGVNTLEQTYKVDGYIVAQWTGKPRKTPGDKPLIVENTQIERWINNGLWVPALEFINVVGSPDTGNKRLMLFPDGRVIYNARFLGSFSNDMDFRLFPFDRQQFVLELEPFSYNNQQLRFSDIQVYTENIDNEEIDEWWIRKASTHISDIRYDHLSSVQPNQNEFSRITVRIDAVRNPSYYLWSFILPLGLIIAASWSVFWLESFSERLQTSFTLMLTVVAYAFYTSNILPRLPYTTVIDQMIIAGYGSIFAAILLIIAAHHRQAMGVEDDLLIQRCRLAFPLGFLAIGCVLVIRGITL

In the case of NCCS [cysteamine], the EC50 (ELIC S271A + F307A) is reported as 770 ± 90 µM, the “−logEC50” value (ELIC S271A + F307A) is reported as 3.11 ± 0.05 and the EC50 (ELIC Q263A) is reported as 580 ± 40 µM. The “−logEC50” value (ELIC Q263A) was 3.24 ± 0.03, the EC50 (ELIC W223A) was 1230 ± 60 µM and the “−logEC50” value (ELIC W223A) was 2.91 ± 0.02. The EC50 (ELIC F281A) was 880 ± 50 µM, the “−logEC50” value (ELIC F281A) was 3.06 ± 0.02 and the EC50 (ELIC F307A) was 570 ± 90 µM. The “−logEC50” value (ELIC F307A) was 3.24 ± 0.07, the EC50 (ELIC W219A + F303A) was 550 ± 120 µM and the “−logEC50” value (ELIC W219A + F303A) was 3.26 ± 0.10. The EC50 (ELIC M264A) was 1290 ± 120 µM, the “−logEC50” value (ELIC M264A) was 2.89 ± 0.04 and the EC50 (ELIC F303A) was 190 ± 70 µM. The “−logEC50” value (ELIC F303A) was 3.73 ± 0.17, the “gain-of-function relative to WT ELIC” value (ELIC F222A; shift versus WT) was 10 fold and the EC50 (ELIC F222A; ±SD, n=8) was 90 ± 30 µM. The “−logEC50” value (ELIC F222A; ±SD, n=8) was 4.05 ± 0.15, the EC50 (ELIC L278A) was 1070 ± 100 µM and the “−logEC50” value (ELIC L278A) was 2.97 ± 0.04. The EC50 (ELIC L209A) was 290 ± 50 µM, the “−logEC50” value (ELIC L209A) was 3.54 ± 0.08 and the EC50 (ELIC S271A) was 820 ± 50 µM. The “−logEC50” value (ELIC S271A) was 3.09 ± 0.03, the EC50 (ELIC R300A) was 400 ± 50 µM and the “−logEC50” value (ELIC R300A) was 3.40 ± 0.05. The EC50 (ELIC V315A) was 600 ± 80 µM, the “−logEC50” value (ELIC V315A) was 3.22 ± 0.06 and the EC50 (ELIC W219A + F307A) was 450 ± 70 µM. For the same compound, the “−logEC50” value (ELIC W219A + F307A) was 3.35 ± 0.07, the EC50 (ELIC L314A) was 420 ± 50 µM and the “−logEC50” value (ELIC L314A) was 3.38 ± 0.05. For the same compound, the EC50 (ELIC C299A) was 560 ± 80 µM and the “−logEC50” value (ELIC C299A) was 3.25 ± 0.06.
